Experimental findings from patent US5480645A, “Hydroxyamines N-acyl derivatives having scavenger activity and useful in acute and chronic pathologies associated with peroxidation and inflammation phenomena” (LifeGroup S.p.A., priority 1992, dated 1996) are described below.

The subject of data set [1] is rat liver microsomes (membrane phospholipid peroxidation). Kind of data set: Antiperoxidative activity on rat liver microsomes, NADPH/Fe+2/ADP induced peroxidation (MDA formation). It counts as biochemical. Here is the method: Before the final resuspension mitochondria ape washed with 0.125M KCl containing 15 mM Hepes/10 mM tris at pH=7.4. Rat liver microsomes are prepared as described by Ernster and Nordenbrand (Ernster, Nordenbrand K. Methods Enzymol. 1967, 10:574-80). […]
b) 20 mM Hepes-Tris buffer pH=7.4, 0.5 mM cumene hydroperoxide in the presence or in the absence of the compounds to be tested. The trials after incubation are interrupted with 1 ml 35% TCA which 30 mg BHT and 1 ml 1% TBA (thiobarbituric acid) have been added to. Subsequently the incubation is carried out for 15' at 90° C. in order to allow the development of the coloured adduct.
(§1) A common oxidation product, malonyldialdehyde (MDA), to the two oxidant systems described in (a) and in (b), is measured.
The formed MDA is evaluated by spectrophotometry at 532 nm and calculated by using a molar extinction coefficient of 156.000 (Buege J. A. and Aust S. D., Methods Enzymol., 52, 302-310, 1978).
The tested compounds are solubilized in the culture medium up to the desired concentrations (see tables 1-3). […]
The antiperoxidase activity is measured as % of inhibition of malonyldialdehyde formation.

Data set [2] shares this test system. Briefly: Antiperoxidative activity on rat liver microsomes, cumene hydroperoxide induced peroxidation (MDA formation). It counts as biochemical. The conditions noted are these: 0.5 mM cumene hydroperoxyde, Table 3; for MDA: control 12.8. Here is the method:
b) 20 mM Hepes-Tris buffer pH=7.4, 0.5 mM cumene hydroperoxide in the presence or in the absence of the compounds to be tested. […] Subsequently the incubation is carried out for 15' at 90° C. in order to allow the development of the coloured adduct.
as §1
The tested compounds are solubilized in the culture medium up to the desired concentrations (see tables 1-3).
As peroxidant agent 0.5 mM cumene hydroperoxyde is used. As oxidation index the formation of malonyldialdehyde (MDA) is measured (nmoles/mg protein).

A further data set concerns C6 glioma cells. Kind of data set: Protection against 5 mM glutamate cytotoxicity in glioma C6 cultures.
The test system of data set [3] is granular cerebellar cells. Briefly: Protection against 2 mM glutamate cytotoxicity in immature granular cerebellar cell cultures.
The next data set can be described thus: Solubility. To be noted: for solubility: organic solvent or mixture, in ethanol, read-out: solubility in org. solv. It counts as physicochemical.
Data set [4] relates to rat cerebellar granular cells. Kind of data set: Protection against glutamate neurotoxicity in rat cerebellar granular cell cultures. It counts as cell-based. To be noted: glutamate alone, 50 μM; Table 4; control 100; 1440 min. As to the method: Primary cerebellar granular cell cultures are prepared from 8 days old Sprague-Dawly rats. Neurons are grown on 35 mm plates for 7-8 days. […] Glial cells proliferation is prevented by cytosine arabinose-furanoside.
Cells are washed in Locke solution free from Mg^2+ then replated in the conditionned culture medium.
The solution is diluted serially up to 10, 20 and 50 μM. The compounds at the desired concentrations are added to the cells at 37 ° C.; after 15' 50 μM glutamate free from Mg^2+ is added For 15 minutes at 22 ° C.
The cells are then washed 3 times with Locke solution, then added to the original culture medium and maintained at 37 ° C. in 5 % CO2 for 24 hours.
The cellular survival is measured by using a fluorescence microscope.

Setting [5] is: 10 μM, NADPH/Fe+2/ATP, Table 1-A.
Setting [6] is: 10 μM, NADPH/Fe+2/ATP, Table 1-A, control 42.5.
Setting [7] is: 20 μM, NADPH/Fe+2/ATP, Table 1-A.
The mark [8] stands for this setting: 20 μM, NADPH/Fe+2/ATP, Table 1-A, control 42.5.
Where [9] appears, read: Rattus norvegicus, C6 glioma, 24 h, read-out: % Cell survival.
Setting [10] is: Mus musculus, 24 h, read-out: % Cellular survival.

Read-outs that look alike come from different tables or passages of the source.

Take `Cc1c(C)c2c(c(C)c1O)CC(CC(=O)O)O2` (stereo not drawn) [5-hydroxy-4,6,7-trimethyl-2,3-dihydrobenzofuran-2-acetic acid, reference compound]: the peroxidation inhibition is 0% in data set [1] (setting [5]), 12% in data set [1] (setting [7]), 28% in data set [2] (20 μM) and 42% in data set [2] (50 μM). Moreover, the MDA in data set [1] (setting [6]) was found to be 44.19 nmoles/mg prot; in data set [1] (setting [8]), 37.3 nmoles/mg prot; in data set [2] (20 μM), 9.25 nmoles/mg prot; in data set [2] (50 μM) it was 7.5 nmoles/mg prot.

Consider `Cc1c(C)c2c(c(C)c1O)CCC(C)(C(=O)O)O2` (stereo not drawn) [6-hydroxy-2,5,7,8-tetramethylchroman-2-carboxylic acid, reference compound], for which, in the data set on C6 glioma cells (setting [9]), the viability at 10 µM stood at 7%, the viability at 30 µM was 37% and the viability at 100 µM worked out at 94%. Further, in data set [3] (setting [10]), the viability at 10 µM is 43%, the viability at 50 µM amounted to 54% and the viability at 100 µM turned out to be 84%.

Take `CC(=O)OCCNC(=O)C1(C)CCc2c(C)c(OC(C)=O)c(C)c(C)c2O1` (stereo not drawn) [Example 3, 6-acetoxy-2,5,7,8-tetramethyl-chroman-2-(2-acetoxyethyl)-carboxyamide]: the “peroxidation inhibition” value in data set [1] (2.5 μM, Table 1-B, third series) was 23.1%; in data set [1] (5 μM, Table 1-B, third series), 41.6%; in data set [1] (10 μM, Table 1-B, third series) it was 53.8%; in data set [1] (20 μM, Table 1-B, third series), 62.1%. The MDA in data set [1] (2.5 μM, Table 1-B, third series (control 37.4)) was determined as 28.8 nmoles/mg/protein; in data set [1] (5 μM, Table 1-B, third series (control 37.4)), 21.8 nmoles/mg/protein; in data set [1] (10 μM, Table 1-B, third series (control 37.4)), 17.2 nmoles/mg/protein; in data set [1] (20 μM, Table 1-B, third series (control 37.4)), 14.1 nmoles/mg/protein. Further, the solubility in the data set “Solubility” is > 10000 µg/mL. Further, the water solubility result in the data set “Solubility” is on record as “slightly soluble”. Moreover, the viability at 1 µM with C6 glioma cells (setting [9]) came out at 17%; in data set [3] (setting [10]), 49%. For the same molecule, in the data set with C6 glioma cells (setting [9]), the viability at 3 µM worked out at 40%. Moreover, the viability at 10 µM was determined as 82% with C6 glioma cells (setting [9]) and 60% in data set [3] (setting [10]). For the same molecule, the viability at 30 µM in data set [3] (setting [10]) was 77%.

As to `Cc1c(C)c2c(c(C)c1O)CCC(C)(C(=O)NCCCO)O2` (stereo not drawn) [Example 4, N-(6-hydroxy-2,5,7,8-tetramethylchroman-2-carboxyl)-propanolamine], the “peroxidation inhibition” value in data set [1] (10 μM, Table 1-B, first series) stood at 37%; in data set [1] (20 μM, Table 1-B, first series), 95.5%; in data set [1] (40 μM, Table 1-B, first series), 97.7%; in data set [1] (60 μM, Table 1-B, first series), 97.7%; in data set [1] (80 μM, Table 1-B, first series), 97.7%; in data set [1] (100 μM, Table 1-B, first series), 99.3%. Besides, the MDA was found to be 28.96 nmoles/mg/protein in data set [1] (10 μM, Table 1-B, first series (control 46.27)); 1.61 nmoles/mg/protein in data set [1] (20 μM, Table 1-B, first series (control 46.27)); 1.07 nmoles/mg/protein in data set [1] (40 μM, Table 1-B, first series (control 46.27)); 1.04 nmoles/mg/protein in data set [1] (60 μM, Table 1-B, first series (control 46.27)); 1.07 nmoles/mg/protein in data set [1] (80 μM, Table 1-B, first series (control 46.27)); 0.30 nmoles/mg/protein in data set [1] (100 μM, Table 1-B, first series (control 46.27)). Further, in “Solubility” (DMSO, chloroform), the solubility is > 10000 µg/mL. Further, the water solubility entry in the data set “Solubility” is listed as “slightly soluble”. Besides, the viability at 1 µM was 10% in the data set with C6 glioma cells (setting [9]) and 39% in data set [3] (setting [10]). In addition, the results for the viability at 3 µM (in the data set with C6 glioma cells (setting [9]); in data set [3] (setting [10])) were 94% and 60%, respectively. Further, the viability at 10 µM came out at 90% in the data set on C6 glioma cells (setting [9]) and 77% in data set [3] (setting [10]).

With `Cc1c(C)c2c(c(C)c1O)CC(CC(=O)NCCCO)O2` (stereo not drawn) [Example 5, N-[2-(2,3-dihydro-5-hydroxy-4,6,7-trimethylbenzofuran)-acetyl]-propanolamine], the “peroxidation inhibition” value in data set [1] (10 μM, Table 1-B, second series) is on record as 24.0 ± 1.0%; in data set [1] (20 μM, Table 1-B, second series) it was 58.0 ± 7.0%; in data set [1] (40 μM, Table 1-B, second series) it was 94.0 ± 3.0%; in data set [1] (60 μM, Table 1-B, second series), 95.0 ± 3.0%; in data set [1] (80 μM, Table 1-B, second series) it was 94.0 ± 3.0%. The MDA in data set [1] (10 μM, Table 1-B, second series (control 42.50 ± 2.4)) is listed as 32.32 ± 0.4 nmoles/mg/protein; in data set [1] (20 μM, Table 1-B, second series (control 42.50 ± 2.4)) it was 17.87 ± 2.9 nmoles/mg/protein; in data set [1] (40 μM, Table 1-B, second series (control 42.50 ± 2.4)), 2.57 ± 1.3 nmoles/mg/protein; in data set [1] (60 μM, Table 1-B, second series (control 42.50 ± 2.4)), 2.10 ± 1.2 nmoles/mg/protein; in data set [1] (80 μM, Table 1-B, second series (control 42.50 ± 2.4)), 2.54 ± 1.3 nmoles/mg/protein. Also, the solubility in the data set “Solubility” (DMSO, chloroform) is > 10000 µg/mL. Further, the water solubility result in “Solubility” is reported as “slightly soluble”. The viability at 1 µM in the data set on C6 glioma cells (setting [9]) came out at 8%; in data set [3] (setting [10]), 52%. Also, the viability at 3 µM with C6 glioma cells (setting [9]) was 66%. Further, the viability at 10 µM with C6 glioma cells (setting [9]) was determined as 91%; in data set [3] (setting [10]), 83%. Besides, the viability at 30 µM in data set [3] (setting [10]) amounted to 86%.

Take `N[C@@H](CCC(=O)O)C(=O)O` [Glutamate, reference compound]: the cell survival in data set [4] turned out to be 3%. Further, in the data set with C6 glioma cells (5 mM glutamate for 24 hours), the cellular degeneration stood at 90%. Moreover, in the data set with C6 glioma cells (glutamate alone, 5 mM, 24 hours, Table 5), the “% Cell survival” value is listed as 7%. Further, the cell death in data set [3] (2 mM glutamate for 24 hours, immature granular cerebellar cells) is recorded as 60+70%. In addition, in data set [3] (glutamate alone, 2 mM, 24 hours, Table 6), the “% Cellular survival” value is 30%.

For `CC(=O)Oc1c(C)c(C)c2c(c1C)CCC(C)(CCC[C@H](C)CCC[C@H](C)CCCC(C)C)O2` (stereo partly drawn) [Vit. E acetate, reference compound], the peroxidation inhibition in data set [1] (setting [5]) is on record as 0%; in data set [1] (setting [7]), 0%; in data set [1] (40 μM, preincubation time 0 minutes, ADP/NADPH/Fe, Table 2), 1.90%; in data set [1] (40 μM, preincubation time 15 minutes, ADP/NADPH/Fe, Table 2) it was 18.20%; in data set [1] (40 μM, preincubation time 30 minutes, ADP/NADPH/Fe, Table 2), 28.95%; in data set [1] (40 μM, preincubation time 45 minutes, ADP/NADPH/Fe, Table 2) it was 35.80%. In addition, the peroxidation inhibition in data set [1] (40 μM, preincubation time 60 minutes, ADP/NADPH/Fe, Table 2) came out at 40.35%; in data set [2] (20 μM) it was 0%; in data set [2] (50 μM) it was 0%. The MDA in data set [1] (setting [6]) is reported as 51.08 nmoles/mg prot; in data set [1] (setting [8]) it was 49.34 nmoles/mg prot; in data set [2] (20 μM), 14.29 nmoles/mg prot; in data set [2] (50 μM), 11.57 nmoles/mg prot. Besides, the “inhibition of the peroxidation induced by NADPH/Fe+2/ADP (in words)” value in data set [1] (in vitro, 10 to 50 μM dose/effect relationship for the test compound) is “inactive in the in-vitro systems”.
